Assay results reported in PMC3183257 (Tuberculosis (Edinburgh, Scotland), 2011).
Converted amounts (≈) assume the structure as drawn.

What was measured:
[1] = tested on: Mycobacterium tuberculosis H37Rv; assay: Mtb dose response; format: cell-based; conditions: for IC90: Table 2, Mtb H37Rv dose response
Vero cells = assay: Cell cytotoxicity assay using Vero cells, CellTiter-Glo luminescence
[2] = tested on: tufted apple budmoth larvae (P. idaeusalis); conditions: cited from earlier work

| SMILES | IC90 [1] | also measured |
| --- | --- | --- |
| COc1ccccc1-c1cnn2c(Nc3cccc(Cl)c3)cc(C)nc12 [Compound 4a] | 1.7 µg/mL (≈ 4.66 µM) |  |
| COc1cccc(Nc2cc(C)nc3c(-c4ccccc4)cnn23)c1 [Compound 4b] | 1.8 µg/mL (≈ 5.45 µM) |  |
| Cc1cc(C)cc(Nc2cc(C)nc3c(-c4ccccc4)cnn23)c1 [Compound 4c] | 2.7 µg/mL (≈ 8.22 µM) |  |
| Cc1cc(Nc2ccc(C)c(Cl)c2)n2ncc(-c3ccccc3)c2n1 [Compound 4d] | 3.4 µg/mL (≈ 9.75 µM) |  |
| Cc1cc(Nc2ccc(C)c(C)c2)n2ncc(-c3ccccc3)c2n1 [Compound 4e] | 3.4 µg/mL (≈ 10.4 µM) |  |
| O=C(OCn1nnc2ccccc2c1=O)c1ccccc1 [Compound 7a] |  | cytotoxicity (Vero cells): > 40 µg/mL |
| CCOc1ccc(C(=O)Nc2nnc(-c3ccccn3)o2)cc1 [Compound 22a] |  | activity and toxicity in words ([1]; Mtb IC90 and Vero selectivity): potent and relatively non-toxic |
| NCC[C@H](O)C(=O)N[C@@H]1C[C@H](N)[C@@H](O[C@H]2O[C@H](CN)[C@@H](O)[C@H](O)[C@H]2O)[C@H](O)[C@H]1O[C@H]1O[C@H](CO)[C@@H](O)[C@H](N)[C@H]1O [amikacin, reference compound] |  | IC50 ([1]; Mycobacterium tuberculosis, H37RV): 0.13 µg/mL (≈ 0.222 µM); inhibition at 0.13 µg/mL ([1]; Mycobacterium tuberculosis, H37RV, read-out: inhibition of Mtb growth): 33 to 60% |
| COP(=S)(OC)SCn1nnc2ccccc2c1=O [azinphosmethyl] |  | susceptibility of larvae [2]: susceptible |
